Experimental data: patent publication EP3722296B1, “DIHYDRONAPHTHYRIDINES AND RELATED COMPOUNDS USEFUL AS KINASE INHIBITORS FOR THE TREATMENT OF PROLIFERATIVE DISEASES” (Deciphera Pharmaceuticals, LLC, priority 2012, dated 2013)

Assays:
Assay type in all cases: cell-based
GIST430 cells = test: GIST 430 Cell Proliferation Assay; details: Homo sapiens, 120 h, 115 hours + 5 hours resazurin
Description: GIST48, GIST430, and GIST882 cells were obtained from J. Fletcher (Brigham and Women's Hospital, Boston, MA). GIST T1 cells were obtained from B. Rubin (Cleveland Clinic, Cleveland, OH) and Professor Takahiro Taguchi (Kochi Medical School, Nankoku, Kochi, Japan). Briefly, GIST48 and GIST 882 cells were grown in RPMI 1640 medium supplemented with 15% characterized fetal bovine serum (Invitrogen, Carlsbad, CA), 1 unit/mL penicillin G, 1 µg/ml streptomycin, and 0.29 mg/mL L-glutamine at 37 °C, 5% CO2, and 95% humidity. GIST430 cells were grown in Ham's F10 medium supplemented with 15% characterized fetal bovine serum (Invitrogen, Carlsbad, CA), 30 mg/L bovine pituitary extract (BD Biosciences, San Jose, CA), 0.5% Mito+ serum extender (BD Biosciences, San Jose, CA), 1 unit/mL penicillin G, 1 µg/ml streptomycin, and 0.29 mg/mL L-glutamine at 37 °C, 5%CO2, 95% humidity. GIST T1 cells were grown in DMEM medium supplemented with 10% characterized fetal bovine serum (Invitrogen, Carlsbad, CA), 1 unit/mL penicillin G, 1 µg/ml streptomycin, and 0.29 mg/mL L-glutamine at 37 °C, 5% CO2, and 95% humidity.
A serial dilution of test compound was dispensed into a 384-well black clear bottom plate (Corning, Corning, NY). Two thousand five-hundred cells were added per well in 50 µL complete growth medium. Plates were incubated for 115 hours at 37°C, 5% CO2, 95% humidity. At the end of the incubation period 10 µL of a 440 µM solution of resazurin (Sigma, St. Louis, MO) in PBS was added to each well and incubated for an additional 5 hours at 37°C, 5% CO2, 95% humidity. Plates were read on a Synergy2 reader (Biotek, Winooski, VT) using an excitation of 540 nm and an emission of 600 nm.

V560D/N822K = target: T1, V560D/N822K (Homo sapiens, UniProt P10721, N822K/V560D); test: CHO K1 phospho-KIT ELISA; details: transient transfected CHO K1 cells, phospho-c-KIT (Tyr719), read-out: KIT kinase domain mutations (primary/secondary): V560D / N822K
T1 construct: V5 (vector-encoded); expressed in transfected cells; host or cells: CHO K1
Description: (§2) CHO K1 cells (catalog #CCL-61) were obtained from the American Type Culture Collection, Manassas, VA. […] Cells were allowed to expand until reaching 70-95% confluency at which point they were subcultured or harvested for assay use.
(§3) Cells were then incubated overnight at 37°C, 5% CO2, 95% RH. Transfection-grade pcDNA3.2 V5 DEST expression vector containing KIT variant, Lipofectamine LTX Reagent, and PLUS reagent (Invitrogen, Carlsbad, CA) were diluted into Opti-MEM® I medium (Invitrogen, Carlsbad, CA). The tube was incubated at room temperature to allow formation of DNA-Lipofectamine LTX complexes. The DNA-lipofectamine LTX complex mix was added directly to each well and mixed gently. Eighteen hours post-transfection, medium was replaced with serum-free RPMI medium. A serial dilution of test compound was added, and plates were incubated for 4 hours at 37°C, 5% CO2, 95% RH. Cell lysates were prepared, then phospho-c-KIT (Tyr719) was measured by using a Human phospho-c-KIT ELISA kit (Cell Signaling, Beverly, MA). Data was analyzed using Prism software (Graphpad, San Diego, CA) to calculate IC50 values.

V560D/Y823D = target: T2, V560D/Y823D (Homo sapiens, UniProt P10721, V560D/Y823D); test: CHO K1 phospho-KIT ELISA; details: transient transfected CHO K1 cells, phospho-c-KIT (Tyr719), read-out: KIT kinase domain mutations (primary/secondary): V560D / Y823D
T2 construct: V5 (vector-encoded); expressed in transfected cells; host or cells: CHO K1
Description: as §2, §3

D820A KIT = target: T3, D820A KIT (Homo sapiens, UniProt P10721, D820A); test: CHO K1 phospho-KIT Western; details: transient transfected CHO K1 cells, phospho-KIT (Tyr719), read-out: KIT kinase domain mutations (primary/secondary): D820A
T3 construct: V5 (vector-encoded); expressed in transfected cells; host or cells: CHO K1
Description: (§1) Cells were washed with PBS, then lysed. Cell lysates were separated by SDS-PAGE and transferred to PVDF. Phospho-KIT (Tyr719) was detected using an antibody from Cell Signaling Technology (Beverly, MA), ECL Plus detection reagent (GE Healthcare, Piscataway, NJ) and a Molecular Devices Storm 840 phosphorimager in fluorescence mode. Blots were stripped and probed for total KIT using an antibody from Santa Cruz Biotech (Santa Cruz, CA). IC50 values were calculated using Prism software (Graphpad, San Diego, CA).

[1] = target: T4, VV559-560 deletion/D816V KIT (Homo sapiens, UniProt P10721, D816V/DEL559-560); test: CHO K1 phospho-KIT Western; details: transient transfected CHO K1 cells, phospho-KIT (Tyr719), read-out: KIT kinase domain mutations (primary/secondary): VV559-560 deletion / D816V
T4 construct: expressed in transfected cells; host or cells: CHO K1
Description: as §1

D816V KIT = target: T5, D816V KIT (Homo sapiens, UniProt P10721, D816V); test: CHO K1 phospho-KIT Western; details: transient transfected CHO K1 cells, phospho-KIT (Tyr719), read-out: KIT kinase domain mutations (primary/secondary): D816V
T5 construct: V5 (vector-encoded); expressed in transfected cells; host or cells: CHO K1
Description: as §1

[2] = target: T6, WKV557-559 deletion/C557insertion/D820A (Homo sapiens, UniProt P10721, D820A/DEL557-558/V559C); test: CHO K1 phospho-KIT ELISA; details: transient transfected CHO K1 cells, phospho-c-KIT (Tyr719), read-out: KIT kinase domain mutations (primary/secondary): WKV557-559 deletion
T6 construct: V5 (vector-encoded); expressed in transfected cells; host or cells: CHO K1
Description: as §2, §3

[3] = target: T7, AY502 duplication/D816G KIT (Homo sapiens, UniProt P10721, D816G/DUP502-503); test: CHO K1 phospho-KIT ELISA; details: transient transfected CHO K1 cells, phospho-c-KIT (Tyr719), read-out: KIT kinase domain mutations (primary/secondary): AY502 duplication / D816G
T7 construct: V5 (vector-encoded); expressed in transfected cells; host or cells: CHO K1
T7 sequence (P10721 with tags, fused parts or gaps DUP502-503/D816G): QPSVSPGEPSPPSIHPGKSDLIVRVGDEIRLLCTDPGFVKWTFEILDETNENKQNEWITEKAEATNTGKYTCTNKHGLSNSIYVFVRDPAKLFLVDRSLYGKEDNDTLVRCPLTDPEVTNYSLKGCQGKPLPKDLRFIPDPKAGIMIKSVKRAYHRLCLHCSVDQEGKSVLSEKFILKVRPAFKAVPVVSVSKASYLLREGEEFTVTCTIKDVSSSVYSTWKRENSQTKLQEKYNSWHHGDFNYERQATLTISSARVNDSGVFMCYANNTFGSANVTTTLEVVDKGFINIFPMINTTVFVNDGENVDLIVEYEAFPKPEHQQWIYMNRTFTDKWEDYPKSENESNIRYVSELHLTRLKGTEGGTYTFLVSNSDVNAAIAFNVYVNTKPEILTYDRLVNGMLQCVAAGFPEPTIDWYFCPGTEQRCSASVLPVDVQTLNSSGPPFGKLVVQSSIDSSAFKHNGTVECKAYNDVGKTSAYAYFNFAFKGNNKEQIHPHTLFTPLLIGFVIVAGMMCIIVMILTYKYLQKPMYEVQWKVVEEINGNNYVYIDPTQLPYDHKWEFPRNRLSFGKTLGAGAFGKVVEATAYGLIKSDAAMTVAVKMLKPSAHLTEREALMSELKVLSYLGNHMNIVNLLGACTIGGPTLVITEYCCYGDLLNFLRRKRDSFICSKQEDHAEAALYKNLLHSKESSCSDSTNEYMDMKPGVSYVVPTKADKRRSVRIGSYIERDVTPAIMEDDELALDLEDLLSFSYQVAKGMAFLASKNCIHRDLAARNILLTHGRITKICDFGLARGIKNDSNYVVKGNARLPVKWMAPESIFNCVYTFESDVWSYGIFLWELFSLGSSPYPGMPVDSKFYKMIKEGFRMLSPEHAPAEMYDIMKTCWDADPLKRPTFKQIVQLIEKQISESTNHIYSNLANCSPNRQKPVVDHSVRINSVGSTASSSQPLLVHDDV
Description: as §2, §3

T1 sequence (P10721 26-976 V560D/N822K): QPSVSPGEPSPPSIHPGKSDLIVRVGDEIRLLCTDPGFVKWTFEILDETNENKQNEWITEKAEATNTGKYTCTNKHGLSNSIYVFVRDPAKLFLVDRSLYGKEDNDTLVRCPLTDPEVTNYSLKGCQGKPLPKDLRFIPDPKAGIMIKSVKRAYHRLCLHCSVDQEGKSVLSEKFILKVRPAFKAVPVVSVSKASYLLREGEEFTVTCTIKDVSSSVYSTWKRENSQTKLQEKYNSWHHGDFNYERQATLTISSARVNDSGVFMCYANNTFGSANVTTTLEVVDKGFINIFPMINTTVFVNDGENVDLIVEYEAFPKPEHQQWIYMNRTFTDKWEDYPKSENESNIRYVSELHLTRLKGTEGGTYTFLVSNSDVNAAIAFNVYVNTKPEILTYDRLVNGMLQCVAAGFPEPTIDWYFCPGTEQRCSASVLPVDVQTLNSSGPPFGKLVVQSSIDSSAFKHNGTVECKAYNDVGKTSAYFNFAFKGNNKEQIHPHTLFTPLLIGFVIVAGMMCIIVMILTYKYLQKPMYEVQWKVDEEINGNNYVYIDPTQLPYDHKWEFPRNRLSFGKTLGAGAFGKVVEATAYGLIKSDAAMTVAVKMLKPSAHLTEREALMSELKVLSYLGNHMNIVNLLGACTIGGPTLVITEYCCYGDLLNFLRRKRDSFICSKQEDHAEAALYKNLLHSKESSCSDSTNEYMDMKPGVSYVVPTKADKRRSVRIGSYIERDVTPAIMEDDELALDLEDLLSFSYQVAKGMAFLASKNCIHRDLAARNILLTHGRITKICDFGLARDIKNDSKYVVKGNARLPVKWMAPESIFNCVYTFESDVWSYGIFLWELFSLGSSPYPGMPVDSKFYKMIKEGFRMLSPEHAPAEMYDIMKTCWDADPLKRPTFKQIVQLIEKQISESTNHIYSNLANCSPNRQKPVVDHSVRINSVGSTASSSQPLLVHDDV
T3 sequence (P10721 26-976 D820A): as the sequence (P10721 26-976 V560D/N822K) above, with D535V, D795A, K797N counted along it
T5 sequence (P10721 26-976 D816V): as the sequence (P10721 26-976 V560D/N822K) above, with D535V, D791V, K797N counted along it
T4 sequence (P10721 with tags, fused parts or gaps DEL559-560/D816V): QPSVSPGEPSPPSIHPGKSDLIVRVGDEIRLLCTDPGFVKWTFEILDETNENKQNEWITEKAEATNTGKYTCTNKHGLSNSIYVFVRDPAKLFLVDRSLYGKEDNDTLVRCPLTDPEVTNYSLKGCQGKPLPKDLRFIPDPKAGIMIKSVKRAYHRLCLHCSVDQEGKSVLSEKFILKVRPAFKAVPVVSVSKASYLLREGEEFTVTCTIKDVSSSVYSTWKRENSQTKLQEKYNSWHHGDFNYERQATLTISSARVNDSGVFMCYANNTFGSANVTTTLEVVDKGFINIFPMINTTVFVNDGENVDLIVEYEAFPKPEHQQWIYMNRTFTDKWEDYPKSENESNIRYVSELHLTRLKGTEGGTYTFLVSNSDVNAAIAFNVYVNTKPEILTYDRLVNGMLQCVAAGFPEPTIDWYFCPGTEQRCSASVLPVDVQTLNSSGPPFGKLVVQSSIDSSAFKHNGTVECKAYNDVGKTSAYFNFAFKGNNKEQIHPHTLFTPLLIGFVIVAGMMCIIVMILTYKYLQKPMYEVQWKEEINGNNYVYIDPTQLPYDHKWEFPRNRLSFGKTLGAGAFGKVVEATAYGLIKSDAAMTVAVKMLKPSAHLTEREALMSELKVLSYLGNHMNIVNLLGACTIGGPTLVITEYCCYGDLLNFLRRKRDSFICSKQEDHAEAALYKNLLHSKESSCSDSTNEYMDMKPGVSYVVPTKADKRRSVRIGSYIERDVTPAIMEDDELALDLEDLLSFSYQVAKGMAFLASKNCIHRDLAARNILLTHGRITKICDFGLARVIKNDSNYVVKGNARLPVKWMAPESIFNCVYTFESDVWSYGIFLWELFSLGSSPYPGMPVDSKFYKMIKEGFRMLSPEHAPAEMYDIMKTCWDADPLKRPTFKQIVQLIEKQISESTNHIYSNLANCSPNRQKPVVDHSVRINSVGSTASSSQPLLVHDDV
T2 sequence (P10721 26-976 V560D/Y823D): as the sequence (P10721 26-976 V560D/N822K) above, with K797N, Y798D counted along it
T6 sequence (P10721 with tags, fused parts or gaps DEL557-558/V559C/D820A): as the sequence (P10721 with tags, fused parts or gaps DEL559-560/D816V) above, with W532C, K533V, V789D, D793A counted along it

IC50 (V560D/N822K)	IC50 (V560D/Y823D)	IC50 (D820A KIT)	IC50 [1]	IC50 (D816V KIT)	IC50 [2]	IC50 [3]	SMILES	IC50 (GIST430 cells)
–	–	–	–	–	–	–	CCn1c(=O)c(-c2cc(NC(=O)Nc3ccccc3)c(F)cc2Cl)cc2cnc(NC)cc21 [Example 3, 1-(4-chloro-5-(1-ethyl-7-(methylamino)-2-oxo-1,2-dihydro-1,6-naphthyridin-3-yl)-2-fluorophenyl)-3-phenylurea]	10 to 100 nM
–	–	–	–	–	–	–	CCn1c(=O)c(-c2cc(NC(=O)Nc3ccccc3)c(F)cc2Cl)cc2cnc(NCCOC)cc21 [Example 27, 1-(4-chloro-5-(1-ethyl-7-(2-methoxyethylamino)-2-oxo-1,2-dihydro-1,6-naphthyridin-3-yl)-2-fluorophenyl)-3-phenylurea]	100 to 1000 nM
–	–	–	–	–	–	–	CCn1c(=O)c(-c2cc(NC(=O)Nc3cccc(F)c3)c(F)cc2C)cc2cnc(NC)cc21 [Example 44, 1-(5-(1-ethyl-7-(methylamino)-2-oxo-1,2-dihydro-1,6-naphthyridin-3-yl)-2-fluoro-4-methylphenyl)-3-(3-fluorophenyl)urea]	10 to 100 nM
< 10 nM	< 10 nM	10 to 100 nM	10 to 100 nM	< 10 nM	< 10 nM	–	CCn1c(=O)c(-c2cc(NC(=O)Nc3csc4ccccc34)c(F)cc2C)cc2cnc(NC)cc21 [Example 59, 1-(benzo[b]thiophen-3-yl)-3-(5-(1-ethyl-7-(methylamino)-2-oxo-1,2-dihydro-1,6-naphthyridin-3-yl)-2-fluoro-4-methylphenyl)urea]	–
–	–	–	–	–	–	–	CCn1c(=O)c(-c2cc(NC(=O)Nc3csc4ccccc34)c(F)cc2Cl)cc2cnc(NC)cc21 [Example 32, 1-(benzo[b]thiophen-3-yl)-3-(4-chloro-5-(1-ethyl-7-(methylamino)-2-oxo-1,2-dihydro-1,6-naphthyridin-3-yl)-2-fluorophenyl)urea]	10 to 100 nM
10 to 100 nM	< 10 nM	10 to 100 nM	100 to 1000 nM	> 1000 nM	10 to 100 nM	10 to 100 nM	CCn1c(=O)c(-c2cc(NC(=O)Nc3ccccc3)c(F)cc2C)cc2cnc(NC)cc21 [Example 23, 1-(5-(1-ethyl-7-(methylamino)-2-oxo-1,2-dihydro-1,6-naphthyridin-3-yl)-2-fluoro-4-methylphenyl)-3-phenylurea]	10 to 100 nM
